Source: paper PMC9505734, “Design, Synthesis, and Evaluation of a Set of Carboxylic Acid and Phosphate Prodrugs Derived from HBV Capsid Protein Allosteric Modulator NVR 3-778” (Molecules, 2022)
≈ marks a conversion by molar mass, not a printed value. Where a name gives a salt, the structure may show the parent alone. Read-outs that look alike come from different tables or passages of the source.

Columns and labels:
[1] = Cytotoxicity assay (WST, Cell Counting Kit-8); format: cell-based; details: human, Hep38.7-Tet cells, WST method (CCK-8); read-out: CC50: the concentration that kills 50% of Hep38.7-Tet cells
Method: (§1) The target compounds N5-N8 were evaluated for their antiviral potency against HBV replication, as well as cytotoxicity in Hep38.7-Tet cells, which reproduces HBV replication from a chromosome-integrated HBV transgene under depletion of tetracycline from the medium. The 50% effective concentration (EC50) for anti-HBV activity, 50% cytotoxic concentration (CC50), and selectivity index (SI) calculated by CC50/EC50 ratio are shown in Table 1.
(§2) The WST assays were performed by using Cell Counting Kit-8 (CCK-8) (DOJINDO) according to the manufacturer’s protocol. CCK-8 solution was added to the cells, which were incubated at 37 °C for 15 min and the absorbance at 450 nm was measured.

[2] = tested on: HBV replication in Hep38.7-Tet cells; assay: In vitro anti-HBV assay: inhibition of HBV replication (HBV DNA in culture supernatant, real-time PCR); format: cell-based, Hepatitis B virus; details: for EC50: Hepatitis B virus, 144 h, 6 days treatment, read-out: EC50: the concentration of 50% inhibition for HBV DNA in Hep38.7-Tet cells supernatant
Method: as §1
Hep38.7-Tet cells were cultured with DMEM/F-12/GlutaMAX supplemented with 10% fetal bovine serum, and 10 mM HEPES, 200 unit/mL penicillin, 200 µg/mL streptomycin, 5 µg/mL insulin, and 400 ng/mL tetracycline were added at 37 °C in 5% CO2. Tetracycline was removed when inducing HBV replication. Three days after seeding the cells, the cells were treated with or without compounds for 6 days and the culture supernatants were recovered to quantify HBV DNA using the primers 5′-[…]-3′, 5′-[…]-3′, and a probe 5′-FAM-[…]-TAMRA-3′ by real-time fluorescence quantitative PCR, as described.

[3] = Pharmacokinetic experiment after oral administration in rats; format: in vivo, SD rats; details: for MRT last: read-out: MRT0-last
Method: In order to explore the metabolism and bioavailability of prodrug in vivo after oral administration, the main pharmacokinetic parameters were tested. After oral administration of N6 and NVR 3-778 to the two groups of rats, we detected their plasma concentration, respectively. […] The experimental results confirmed that N6 had longer half-life and lower maximum concentration in vivo than NVR 3-778. In addition, N6 was completely transformed into NVR 3-778 in vivo, and both had favorable bioavailability. Compared with NVR3-778, N6 can release drugs more slowly, which can improve the narrow therapeutic window of NVR3-778 to some extent.
Six male SD rats were randomly divided into two groups (administered with N6 and NVR 3-778, respectively). The rats were fasted for 12 h before administration and had free access to water. Animal feed was given 4 h after administration. Compounds N6 and NVR 3-778 were both administered orally at a dose of 10 mg/kg. The corresponding doses of compounds were dissolved in DMSO/PEG400/water (3%/60%/37%, V/V/V) mixed solution to prepare compound oral solutions, respectively, which were filtered through the […]. After intragastric administration, blood was obtained by jugular vein puncture (blood point: before administration and 0.25 h, 0.5 h, 1 h, 2 h, 4 h, 6 h, 10 h, and 24 h after administration). Then 0.25 mL whole blood was collected from each rat at each time point, adding EDTA-K2 for anticoagulation. After collection, the plasma was centrifuged within 1 h (centrifugal condition: 8000 rpm, 5 min, 8 °C). Plasma samples were stored in a refrigerator before analysis. After the experiment, all rats were executed according to the regulations of the Experimental Animal Ethics Committee.

[4] = Whole blood stability at 37 °C; format: in vitro ADME; details: rat whole blood, 2 µM; for Whole Blood (37 °C) Residual: after 2 h
Method: (§3) In order to verify the stability of prodrug in vitro, the stability of NVR 3-778 and prodrug N6 in plasma at 4 °C and whole blood at 37 °C was tested by the LC-MS/MS and characterization of their stability by peak area. […] A total of 1 mL of rat plasma was placed in ice water at 4 °C and 1 mL of rat whole blood was placed in a water bath at 37 °C for use, respectively. DMSO solution with compound concentration of 1 mM was prepared, and then 10 µL compound solution was added to 90 μL 45% methanol aqueous solution to obtain a quantitative solution with a concentration of 100 µM. A 2 µL compound solution was added to 98 µL 4 °C plasma and 37 °C whole blood, and three portions were prepared to reach the final concentration of 2 µM, respectively. After incubation for two hours, 400 µL termination solution was added. The samples were centrifuged at 4000 rpm for 10 min, and the supernatant was extracted. A total of 100 µL supernatant was mixed with 200 µL ultrapure water and fully shaken for 10 min. The absorption peak area (A) of the sample to be tested was determined by HPLC.

[5] = Water solubility test in phosphate buffers (HPLC); format: physicochemical; details: for solubility at 1 h: aqueous buffer
Method: The compound was dissolved in DMSO to prepare the mother liquor with a concentration of 10 mg/mL, and then 10 µL mother liquor was added to 1 mL phosphate buffer with different pH (pH = 2.0, 7.0, and 7.4). The solution was oscillated for 2 h at 3000 rpm of the vortex oscillator, and the precipitation of compounds was observed visually. The standard curve can be established by increasing the concentration of mother liquor until turbidity appears. The peak area (A) of different concentrations (c) was determined by HPLC. The standard curve was established with the concentration and peak area as abscissa and ordinate, respectively, and the standard curve equation A = kc + b was calculated. The standard curve of NVR 3-778 concentration–peak area was established by measuring the peak area at five concentrations of 1000, 200, 40, 8.0, and 1.6 µg/mL. The standard curve equation was A = 35,268c + 80,359 with R^2 = 0.9999. By measuring the peak area at 4000 µg/mL, 1000 µg/mL, 200 µg/mL, 40 µg/mL, and 8.0 µg/mL, the standard curve of N6 concentration–peak area was established: A = 16,303c + 714,762, R^2 = 0.999. Since the solubility of N6 in phosphate buffer solution (pH = 7.0, 7.4) had exceeded the detector range, the saturated solution of N6 was diluted 10 times for testing. On this basis, the saturated solution (pH = 2.0, 7.0, and 7.4) of phosphate buffer at different pH values was prepared and fully oscillated for 1 h before filtration. Finally, the absorption peak area of the sample at different pH phosphate buffer (pH = 2.0, 7.0, and 7.4) was determined (measured twice). According to the standard curve equation, the corresponding concentration was calculated, which was the solubility of the compound.

Plasma stability at 4 °C = format: in vitro ADME; details: rat plasma, 2 µM; for Plasma (4 °C) Residual: after 2 h
Method: as §3

Hep38.7-Tet cells = assay: Cytotoxicity assay (WST, Cell Counting Kit-8); format: cell-based
Method: as §1, §2

HepG2.2.15 cell line = details: read-out: EC50, antiviral activity; cited from earlier work
[6] = design: method as in PMID 35268440; details: pH = 2.0 ref 16; cited from earlier work
[7] = male, SD, analyte N6 in plasma after oral N6, 10 mg/kg (18.8 nmol/kg), rat
[8] = male, SD, plasma, 10 mg/kg, analyte NVR 3-778 after oral NVR 3-778, rat

Row | Compound | melting point | CC50 [1] | SI: selectivity index, the ratio of CC50/EC50 [2] | EC50 [2] | Whole Blood (37 °C) 0 h (peak area) [4] | Whole Blood (37 °C) 2 h (peak area) [4] | Whole Blood (37 °C) Residual [4] | solubility at 1 h ([5]; phosphate buffer pH = 2.0) | solubility at 1 h ([5]; phosphate buffer pH = 7.0) | solubility at 1 h ([5]; phosphate buffer pH = 7.4) | Plasma (4 °C) 0 h (peak area) (Plasma stability at 4 °C) | Plasma (4 °C) 2 h (peak area) (Plasma stability at 4 °C) | Plasma (4 °C) Residual (Plasma stability at 4 °C) | other results
1 | O=C(Nc1cc(F)c(F)c(F)c1)c1ccc(F)c(S(=O)(=O)N2CCC(OP(=O)(O)O)CC2)c1 (as salt: phosphate) [N5, 1-((2-Fluoro-5-((3,4,5-trifluorophenyl)carbamoyl)phenyl)sulfonyl)piperidin-4-yl Dihydrogen Phosphate] | 162 to 164 °C |  |  |  |  |  |  |  |  |  |  |  |  | 
2 | O=C(Nc1cc(F)c(F)c(F)c1)c1ccc(F)c(S(=O)(=O)N2CCC(OP(=O)(O)O)CC2)c1 [N5, 1-((2-Fluoro-5-((3,4,5-trifluorophenyl)carbamoyl)phenyl)sulfonyl)piperidin-4-yl Dihydrogen Phosphate] |  | 13700 ± 1450 nM | 33 | 420 ± 69 nM |  |  |  |  |  |  |  |  |  | 
3 | O=C(O)CCC(=O)OC1CCN(S(=O)(=O)c2cc(C(=O)Nc3cc(F)c(F)c(F)c3)ccc2F)CC1 [N6, 4-((1-((2-fluoro-5-((3,4,5-trifluorophenyl)carbamoyl)phenyl)sulfonyl)piperidin-4-yl)oxy)-4-oxobutanoic acid] | 138 to 140 °C | 12600 ± 1050 nM | 36 | 350 ± 48 nM | 0.65 ± 0.048 | 0.70 ± 0.026 | 108% | 695 µg/mL (≈ 1310 µM) | 7500 µg/mL (≈ 14100 µM) | 4420 µg/mL (≈ 8290 µM) | 0.88 ± 0.052 | 0.89 ± 0.016 | 101% | Tlast ([3]; analyte N6 in plasma after oral N6, 10 mg/kg (18.8 nmol/kg), rat): 1.00 h; AUC(0-t) [3, 7]: 8.13 ± 1.5 ng·h/mL; Cmax [3, 7]: 14.7 ± 1.31 ng/mL; Tmax [3, 7]: 0.25 h; MRT last [3, 7]: 0.487 h; time for complete conversion of N6 into NVR 3-778 ([3]; rats, oral N6 10 mg/kg): ≤ 2 h; water solubility compared with NVR 3-778 ([5]; pH = 2): more than 180 times; water solubility compared with NVR 3-778 ([5]; pH = 7): > 310 times; water solubility compared with NVR 3-778 ([5]; pH = 7.4): > 900 times
4 | O=C(O)CCCC(=O)OC1CCN(S(=O)(=O)c2cc(C(=O)Nc3cc(F)c(F)c(F)c3)ccc2F)CC1 [N7, 5-((1-((2-fluoro-5-((3,4,5-trifluorophenyl)carbamoyl)phenyl)sulfonyl)piperidin-4-yl)oxy)-5-oxopentanoic acid] | 135 to 137 °C | 13000 ± 1740 nM | 46 | 280 ± 24 nM |  |  |  |  |  |  |  |  |  | 
5 | O=C(O)CCCCC(=O)OC1CCN(S(=O)(=O)c2cc(C(=O)Nc3cc(F)c(F)c(F)c3)ccc2F)CC1 [N8, 6-((1-((2-fluoro-5-((3,4,5-trifluorophenyl)carbamoyl)phenyl)sulfonyl)piperidin-4-yl)oxy)-6-oxohexanoic acid] | 132 to 134 °C | > 256000 nM | >731 | 350 ± 32 nM |  |  |  |  |  |  |  |  |  | reduction of toxicity compared with NVR 3-778 (Hep38.7-Tet cells; CC50 in Hep38.7-Tet cells): at least 18 fold
6 | O=C(Nc1cc(F)c(F)c(F)c1)c1ccc(F)c(S(=O)(=O)N2CCC(O)CC2)c1 [NVR 3-778, 4-Fluoro-3-((4-hydroxypiperidin-1-yl)sulfonyl)-N-(3,4,5-trifluorophenyl)benzamide] |  | 12600 ± 210 nM | 36 | 380 ± 47 nM | 0.18 ± 0.016 | 0.16 ± 0.0026 | 91% | 3.82 µg/mL (≈ 8.83 µM) | 24 µg/mL (≈ 55.6 µM) | 4.84 µg/mL (≈ 11.2 µM) | 0.12 ± 0.0078 | 0.10 ± 0.0066 | 85% | Tlast ([3]; analyte NVR 3-778 after oral NVR 3-778, 10 mg/kg (23.1 nmol/kg), rat): 10.0 h; AUC(0-inf) [3, 8]: 3940 ± 948 ng·h/mL; AUC(0-t) [3, 8]: 3890 ± 948 ng·h/mL; Cmax [3, 8]: 1160 ± 261 ng/mL; Tmax [3, 8]: 0.833 ± 0.289 h; MRT inf ([3]; male, SD, plasma, 10 mg/kg, analyte NVR 3-778 after oral NVR 3-778, rat, read-out: MRT0-inf): 2.78 ± 0.144 h; MRT last [3, 8]: 2.67 ± 0.106 h; half-life ([3]; male, SD, plasma, analyte NVR 3-778 after oral NVR 3-778, 10 mg/kg (23.1 nmol/kg), rat): 1.4 ± 0.25 h; CC50 (Hep38.7-Tet cells; WST method (CCK-8), read-out: CC50: the concentration that kills 50% of Hep38.7-Tet cells): 13600 ± 210 nM; EC50 (HepG2.2.15 cell line): 400 nM; water solubility [6]: 3 µg/mL (≈ 6.94 µM)
